Test results: article PMC4546618, “Casitas B-Lineage Lymphoma RING Domain Inhibitors Protect Mice against High-Fat Diet-Induced Obesity and Insulin Resistance” (PLoS ONE, 2015)
*1 amine or outer side, *2 acyl side, *3 side chain or, on linkers, in order; H or OH if unused. Where a SMILES comes first, the peptide text is derived from it. [ ]: non-standard residue; d: D form. Phe(4-NO2) = N[C@@H](Cc1ccc([N+](=O)[O-])cc1)C(=O)O; Pro(trans-4-F) = O=C(O)[C@@H]1C[C@@H](F)CN1; X1 = CC(=O)N(O)CCCC[C@H](N[*:1])C(=O)[*:2]; Phe(4-NH2) = Nc1ccc(C[C@H](N)C(=O)O)cc1; Phe(3-F) = N[C@@H](Cc1cccc(F)c1)C(=O)O; Phe(3-Me) = Cc1cccc(C[C@H](N)C(=O)O)c1; Phe(2-Me) = Cc1ccccc1C[C@H](N)C(=O)O; Cha = N[C@@H](CC1CCCCC1)C(=O)O; ΔPro = O=C(O)[C@@H]1C=CCN1; Pip = O=C(O)[C@@H]1CCCCN1

Target: T1, Cbl (RING) protein (Homo sapiens, UniProt P22681)
T1 construct: including the linker and RING domain (codon 358–457); GST (Glutathione S-Transferase); made in house
T1 sequence (P22681 358-457): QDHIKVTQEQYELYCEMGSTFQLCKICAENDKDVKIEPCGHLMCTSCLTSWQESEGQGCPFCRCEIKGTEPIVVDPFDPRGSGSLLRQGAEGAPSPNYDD
Assay: Fluorescence polarization (FP) assay, competition with FITC-βA-PFKPP-NH2 probe
Assay type: binding
Details: probe FITC-βA-PFKPP-NH2 100 nmol/L, Cbl (RING) protein 3 μmol/L, PBS pH 7.4
Experimental: Peptides and peptide mimetics were purchased from MitenChem (China) with a purity ≥ 98%. Concentrations values of reconstituted peptides were determined by amino acid analysis at the protein core facility (Chengdu Medical College). The recombinant Cbl protein was produced by the Chengdu Medical College Protein Core Facility and was described previously. The c-Cbl (RING) protein, including the linker and RING domain (codon 358–457), was tagged with Glutathione S-Transferase (GST) and purified with GSH-Sepharose (Shanghai Biopharma).
The FP assay was developed and validated previously. Briefly, fluorescein-labeled probe (FITC-βA-PFKPP-NH2, 100 nmol/L) and Cbl (RING) protein (3 μmol/L) were mixed and diluted to the final concentration using 0.01% Triton X-100 in PBS (pH = 7.4). Then, 19 μl of this master mix was loaded to each reaction well. The peptides or peptide mimetics were then loaded to the designated wells (1 μl, 10 μmol/L– 0.078 μmol/L, half-fold dilutions). The total fluorescence and polarization values were measured at an excitation wavelength of 485 nm and an emission wavelength of 538 nm using a ZS-2 plate reader. The data was fitted, and the ΔmP, Kd, and Ki values were estimated, using SigmaPlot 11.0.

| Compound | Ki |
| --- | --- |
| CC(=O)N1CCC[C@H]1C(=O)N[C@@H](Cc1cccc(C)c1)C(=O)N[C@@H](CCCCN)C(=O)N1CCC[C@H]1C(=O)N1CCC[C@H]1C(N)=O [Peptide 7, Ac-P(e)KPP-NH2] (Ac-P[Phe(3-Me)]KPP-NH2) | 4.5 ± 1 µM |
| CC(=O)CN(CCCC[C@H](NC(C)=O)C(=O)N1CCC[C@H]1C(=O)N[C@@H](C)C(=O)N[C@H](C(=O)N[C@@H](CCCCN(O)C(C)=O)C(N)=O)[C@@H](C)O)C(C)=O [Peptide 45, Ac-(w)PAT(v)-NH2] | 196 ± 12.3 µM |
| CC(=O)N1CCC[C@H]1C(=O)N[C@@H](CC1CCCCC1)C(=O)N[C@@H](CCCCN)C(=O)N1CCC[C@H]1C(=O)N1CCC[C@H]1C(N)=O [Peptide 5, Ac-P(c)KPP-NH2] (Ac-P[Cha]KPP-NH2) | 125 ± 12.6 µM |
| CC(=O)N[C@@H](CCCCN)C(=O)N1CCCC[C@H]1C(=O)N[C@@H](C)C(=O)N[C@H](C(=O)N[C@@H](CCCCN)C(N)=O)[C@@H](C)O [Peptide 50, Ac-K(s)ATK-NH2] (Ac-K[Pip]ATK-NH2) | 32.6 ± 10.9 µM |
| CC(=O)N1CC=C[C@H]1C(=O)N[C@@H](Cc1cccc(F)c1)C(=O)N[C@@H](CCCCN)C(=O)N1CCC[C@H]1C(=O)N1CCC[C@H]1C(N)=O [Peptide 32, Ac-(p) (h)KPP-NH2] (Ac-[ΔPro][Phe(3-F)]KPP-NH2) | > 250 µM |
| CC(=O)N[C@@H](CCCCN)C(=O)N1C[C@H](F)C[C@H]1C(=O)N[C@@H](C)C(=O)N[C@H](C(=O)N[C@@H](CCCCN)C(N)=O)C(C)C [Peptide 58, Ac-K(t)AVK-NH2] (Ac-K[Pro(trans-4-F)]AVK-NH2) | 126 ± 3.2 µM |
| CC(=O)N1CCC[C@H]1C(=O)N[C@@H](Cc1ccc([N+](=O)[O-])cc1)C(=O)N[C@@H](CCCCN)C(=O)N1CCC[C@H]1C(=O)N1CCC[C@H]1C(N)=O [Peptide 13, Ac-P(k)KPP-NH2] (Ac-P[Phe(4-NO2)]KPP-NH2) | 4.2 ± 0.4 µM |
| CC(=O)N[C@@H](CCCCN)C(=O)N1CCC[C@H]1C(=O)N[C@@H](C)C(=O)N[C@H](C(=O)N[C@@H](CCCCN(O)C(C)=O)C(N)=O)[C@@H](C)O [Peptide 42, Ac-KPAT(v)-NH2] (Ac-KPAT[X1]-NH2) | 59.8 ± 6.5 µM |
| CC(=O)N1CCC[C@H]1C(=O)N[C@@H](Cc1cccc(F)c1)C(=O)N[C@@H](CCCCN)C(=O)N1CCC[C@@H]1C(=O)N1CCC[C@H]1C(N)=O [Peptide 24, Ac-P(h)K(o)P-NH2] (Ac-P[Phe(3-F)]K[dP]P-NH2) | 3.5 ± 0.4 µM |
| CC(=O)N1CCCC[C@H]1C(=O)N[C@@H](Cc1cccc(F)c1)C(=O)N[C@@H](CCCCN)C(=O)N1CCC[C@H]1C(=O)N1CCC[C@H]1C(N)=O [Peptide 35, Ac-(s) (h)KPP-NH2] (Ac-[Pip][Phe(3-F)]KPP-NH2) | 122 ± 9.8 µM |
| CC(=O)N1CCC[C@H]1C(=O)N[C@@H](Cc1cccc(F)c1)C(=O)N[C@@H](CCCCN)C(=O)N1CCC[C@H]1C(=O)N1CCC[C@@H]1C(N)=O [Peptide 17, Ac-P(h)KP(o)-NH2] (Ac-P[Phe(3-F)]KP[dP]-NH2) | 12.5 ± 0.9 µM |
| CC(=O)N1CCC[C@H]1C(=O)N[C@@H](Cc1cccc(F)c1)C(=O)N[C@@H](CCCCN)C(=O)N1CCC[C@H]1C(=O)N1C[C@H](F)C[C@H]1C(N)=O [Peptide 22, Ac-P(h)KP(t)-NH2] (Ac-P[Phe(3-F)]KP[Pro(trans-4-F)]-NH2) | 31.2 ± 0.4 µM |
| CC(=O)N1CCC[C@H]1C(=O)N[C@H](Cc1ccccc1)C(=O)N[C@@H](CCCCN)C(=O)N1CCC[C@H]1C(=O)N1CCC[C@H]1C(N)=O [Peptide 16, Ac-P(n)KPP-NH2] (Ac-P[dF]KPP-NH2) | 15.4 ± 0.4 µM |
| CC(=O)N1CCC[C@H]1C(=O)N[C@@H](Cc1ccccc1C)C(=O)N[C@@H](CCCCN)C(=O)N1CCC[C@H]1C(=O)N1CCC[C@H]1C(N)=O [Peptide 6, Ac-P(d)KPP-NH2] (Ac-P[Phe(2-Me)]KPP-NH2) | 10.2 ± 1.5 µM |
| CC(=O)CN(CCCC[C@H](NC(=O)[C@@H](NC(=O)[C@H](C)NC(=O)[C@@H]1CCCN1C(=O)[C@H](CCCCN(O)C(C)=O)NC(C)=O)[C@@H](C)O)C(N)=O)C(C)=O [Peptide 44, Ac-(v)PAT(w)-NH2] | 126 ± 22.6 µM |
| CC(=O)N1CCC[C@H]1C(=O)N[C@@H](Cc1ccc(N)cc1)C(=O)N[C@@H](CCCCN)C(=O)N1CCC[C@H]1C(=O)N1CCC[C@H]1C(N)=O [Peptide 12, Ac-P(j)KPP-NH2] (Ac-P[Phe(4-NH2)]KPP-NH2) | 4.5 ± 0.8 µM |
| CC(=O)N1CCC[C@H]1C(=O)N[C@@H](Cc1cccc(F)c1)C(=O)N[C@@H](CCCCN)C(=O)N1CC=C[C@H]1C(=O)N1CCC[C@H]1C(N)=O [Peptide 25, Ac-P(h)K(p)P-NH2] (Ac-P[Phe(3-F)]K[ΔPro]P-NH2) | > 250 µM |
| CC(=O)N1CCC[C@H]1C(=O)N[C@@H](Cc1cccc(F)c1)C(=O)N[C@@H](CCCCN)C(=O)N1C[C@H](F)C[C@H]1C(=O)N1CCC[C@H]1C(N)=O [Peptide 29, Ac-P(h)K(t)P-NH2] (Ac-P[Phe(3-F)]K[Pro(trans-4-F)]P-NH2) | 24.6 ± 5.8 µM |
